Experimental data published in the supplement of paper PMC10307832.

Columns and labels:
Experiment in all cases: relative viability (nuclei count vs DMSO), 5 days (fraction); higher = more cells survive
Dasatinib + Alpelisib = compound: Cc1nc(Nc2ncc(C(=O)Nc3c(C)cccc3Cl)s2)cc(N2CCN(CCO)CC2)n1 [Dasatinib] + Cc1nc(NC(=O)N2CCC[C@H]2C(N)=O)sc1-c1ccnc(C(C)(C)C(F)(F)F)c1 [Alpelisib] (partner 2 µM)
Method in brief: (§1)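 A single step with final 0.05% Triton X-100, 1% formaldehyde and 1 ug/ml Hoechst fixed the cells and stained nuclei 5 days after treatment. Lung cancer cell lines in 1536-well plates had been treated by pin tool the day after seeding with one drug alone or a fixed anchor-drug dose plus five library-drug doses (not always all listed) in √10 steps, and nuclei were counted on 4× images. Relative viability is the ratio of nuclei in treated wells to nuclei in vehicle wells, taken as the median of duplicate plates.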

ALW-II-49-7 + Tozasertib = compound: Cc1ccc(C(=O)Nc2cccc(C(F)(F)F)c2)cc1Nc1cncc(C(N)=O)c1 [ALW-II-49-7] + Cc1cc(Nc2cc(N3CCN(C)CC3)nc(Sc3ccc(NC(=O)C4CC4)cc3)n2)n[nH]1 [Tozasertib] (partner 0.1 µM)
Method in brief: as §1

XMD13-2 + Decitabine = compound: C1CC1C(=O)NC2=NNC3=C2C=CC(=C3)C4=CC(=CC=C4)C(=O)NC5CC5 [XMD13-2] + Nc1ncn([C@H]2C[C@H](O)[C@@H](CO)O2)c(=O)n1 [Decitabine] (partner 2 µM)
Method in brief: as §1

XMD13-2 + Olaparib = compound: C1CC1C(=O)NC2=NNC3=C2C=CC(=C3)C4=CC(=CC=C4)C(=O)NC5CC5 [XMD13-2] + O=C(c1cc(Cc2n[nH]c(=O)c3ccccc23)ccc1F)N1CCN(C(=O)C2CC2)CC1 [Olaparib] (partner 8 µM)
Method in brief: as §1

Cell Line | relative viability (Dasatinib + Alpelisib; first compound 0.005 µM) | relative viability (Dasatinib + Alpelisib; first compound 0.01581 µM) | relative viability (Dasatinib + Alpelisib; first compound 0.05 µM) | relative viability (Dasatinib + Alpelisib; first compound 0.1581 µM) | relative viability (Dasatinib + Alpelisib; first compound 0.5 µM) | relative viability (ALW-II-49-7 + Tozasertib; first compound 0.08 µM) | relative viability (ALW-II-49-7 + Tozasertib; first compound 0.253 µM) | relative viability (ALW-II-49-7 + Tozasertib; first compound 0.8 µM) | relative viability (ALW-II-49-7 + Tozasertib; first compound 2.53 µM) | relative viability (ALW-II-49-7 + Tozasertib; first compound 8 µM) | relative viability (XMD13-2 + Decitabine; first compound 0.05 µM) | relative viability (XMD13-2 + Decitabine; first compound 0.1581 µM) | relative viability (XMD13-2 + Decitabine; first compound 0.5 µM) | relative viability (XMD13-2 + Decitabine; first compound 1.581 µM) | relative viability (XMD13-2 + Decitabine; first compound 5 µM) | relative viability (XMD13-2 + Olaparib; first compound 0.05 µM) | relative viability (XMD13-2 + Olaparib; first compound 0.1581 µM) | relative viability (XMD13-2 + Olaparib; first compound 0.5 µM) | relative viability (XMD13-2 + Olaparib; first compound 1.581 µM) | relative viability (XMD13-2 + Olaparib; first compound 5 µM)
LC-2-ad | 0.854 | 0.703 | 0.699 | 0.276 | 0.169 | 0.405 | 0.428 | 0.431 | 0.209 | 0.434 | 0.797 | 0.728 | 0.828 | 0.79 | 0.712 | 0.684 | 0.716 | 0.681 | 0.701 | 0.718
LCLC-97TM1 | 0.266 | 0.246 | 0.24 | 0.254 | 0.143 | 0.151 | 0.188 | 0.192 | 0.168 | 0.18 | 0.241 | 0.23 | 0.202 | 0.168 | 0.195 | 0.498 | 0.507 | 0.336 | 0.263 | 0.173
LCLC-103H | 0.978 | 1.06 | 0.818 | 0.647 | 0.328 | 0.451 | 0.453 | 0.486 | 0.451 | 0.389 | 0.712 | 0.748 | 0.765 | 0.719 | 0.756 | 0.764 | 0.797 | 0.776 | 0.846 | 0.805
LK-2 | 1.04 | 0.764 | 0.449 | 0.312 | 0.275 | – | 0.191 | 0.2 | 0.175 | 0.151 | 0.378 | 0.297 | 0.274 | 0.281 | 0.329 | 0.831 | 0.911 | 0.807 | 0.642 | 0.668
LOU-NH91 | 0.69 | 0.584 | 0.572 | 0.441 | 0.34 | 0.622 | 0.468 | 0.633 | 0.631 | 0.575 | 0.815 | 0.844 | 0.802 | 0.837 | 0.882 | 0.976 | 0.958 | 0.97 | 0.869 | 0.944
LU99A | 0.494 | 0.5 | 0.477 | 0.288 | 0.192 | 0.273 | 0.29 | 0.252 | 0.269 | 0.249 | 0.97 | 0.881 | 0.945 | 0.857 | 0.808 | 0.288 | 0.277 | 0.248 | 0.273 | 0.263
LXF-289 | 1.05 | 1.05 | 0.666 | 0.154 | 0.109 | 0.187 | 0.194 | 0.168 | 0.184 | 0.182 | 0.38 | 0.377 | 0.402 | 0.399 | 0.379 | 1.28 | 1.03 | 1.15 | 0.99 | 1.05
NCI-H23 | 0.597 | 0.549 | 0.615 | 0.403 | 0.323 | 0.308 | 0.553 | 0.337 | 0.404 | 0.363 | 0.271 | 0.335 | 0.329 | 0.33 | 0.301 | 0.336 | 0.342 | 0.365 | 0.3 | 0.281
NCI-H322M | 0.855 | 0.773 | 0.696 | 0.459 | 0.203 | 0.436 | 0.484 | 0.476 | 0.411 | 0.367 | 0.73 | 0.718 | 0.791 | – | 0.742 | 0.807 | 0.848 | 0.553 | – | 1.04
NCI-H358 | 0.726 | 0.585 | 0.458 | 0.24 | 0.204 | 0.0887 | 0.107 | 0.11 | 0.0927 | 0.085 | 0.248 | 0.212 | 0.22 | 0.216 | 0.18 | 0.72 | 0.618 | 0.667 | 0.718 | 0.61
NCI-H441 | 0.878 | 0.874 | 0.574 | 0.355 | 0.218 | 0.709 | 0.512 | 0.751 | 0.54 | 0.478 | 0.23 | 0.248 | 0.237 | 0.231 | 0.242 | 0.545 | 0.578 | 0.534 | 0.477 | 0.495
NCI-H460 | 0.286 | 0.179 | 0.159 | 0.122 | 0.0551 | 0.354 | 0.597 | 0.421 | 0.273 | 0.0328 | 0.607 | 0.513 | 0.54 | 0.552 | 0.454 | 0.546 | 0.493 | 0.412 | 0.526 | 0.566
NCI-H520 | 0.539 | 0.456 | 0.457 | 0.145 | 0.142 | 0.504 | 0.463 | 0.482 | 0.31 | 0.328 | 0.531 | 0.506 | 0.534 | 0.549 | 0.442 | 0.333 | 0.325 | 0.498 | 0.36 | 0.307
NCI-H596 | 0.387 | 0.436 | 0.378 | 0.326 | 0.221 | 1.02 | 0.939 | 0.92 | 0.782 | 1.14 | 0.934 | 1.02 | 1 | 1.03 | 1.29 | 0.703 | 0.729 | 0.738 | 0.704 | 0.769
NCI-H647 | 0.779 | 0.419 | 0.319 | 0.166 | 0.146 | 0.37 | 0.409 | 0.204 | 0.181 | 0.177 | 0.398 | 0.329 | 0.471 | 0.392 | 0.326 | 0.622 | 0.435 | 0.545 | 0.602 | 0.234
